Assay results taken from the supplement of paper PMC11061612.

Experiments:
Assay in all cases: Bliss excess, mean over the matrix (fraction); higher = more synergy
5637 (Bladder Carcinoma) = tested on: 5637 (Bladder Carcinoma)
Summary of the method: (§1)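 Cell lines grown in DMEM/F12 or RPMI with 10% FBS were plated in 1536-well plates and held 24 hours at 37°C, 5% CO2 before 72 hours of exposure to two-drug dose matrices, with DMSO typically at 0.2%. CellTiter-Glo 2.0 luminescence gave viability, which was converted to inhibition. Vehicle wells were set to 0 and blank wells to 1. Combination Emax is the second-highest inhibition in the matrix, and Bliss excess is the observed combination effect minus the expected EA + EB − EA·EB, where EA and EB are the single-agent effects.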

A101D (Melanoma) = tested on: A101D (Melanoma)
Summary of the method: as §1

[1] = tested on: A253 (Head and Neck Carcinoma)
Summary of the method: as §1

[2] = tested on: CA46 (Burkitt's Lymphoma)
Summary of the method: as §1

[3] = tested on: CAL-27 (Oral Cavity Carcinoma)
Summary of the method: as §1

[4] = tested on: CGTH-W-1 (Thyroid Gland Carcinoma)
Summary of the method: as §1

COLO-792 (Melanoma) = tested on: COLO-792 (Melanoma)
Summary of the method: as §1

[5] = tested on: ESO26 (Esophageal Adenocarcinoma)
Summary of the method: as §1

EW-7 (Ewing's Sarcoma) = tested on: EW-7 (Ewing's Sarcoma)
Summary of the method: as §1

[6] = tested on: G-402 (Other Solid Carcinomas)
Summary of the method: as §1

[7] = tested on: HCC1428 (Breast Carcinoma)
Summary of the method: as §1

HCC70 (Breast Carcinoma) = tested on: HCC70 (Breast Carcinoma)
Summary of the method: as §1

IM-9 (Non-Cancerous) = tested on: IM-9 (Non-Cancerous)
Summary of the method: as §1

[8] = tested on: JHU-022 (Oral Cavity Carcinoma)
Summary of the method: as §1

KP-N-YN (Neuroblastoma) = tested on: KP-N-YN (Neuroblastoma)
Summary of the method: as §1

[9] = tested on: LU-165 (Small Cell Lung Carcinoma)
Summary of the method: as §1

[10] = tested on: NCI-H1651 (Lung Adenocarcinoma)
Summary of the method: as §1

[11] = tested on: NCI-H2087 (Lung Adenocarcinoma)
Summary of the method: as §1

RH-41 (Rhabdomyosarcoma) = tested on: RH-41 (Rhabdomyosarcoma)
Summary of the method: as §1

[12] = tested on: SK-HEP-1 (Hepatocellular Carcinoma)
Summary of the method: as §1

| Structure (SMILES) | Bliss excess (5637 (Bladder Carcinoma)) | Bliss excess (A101D (Melanoma)) | Bliss excess [1] | Bliss excess [2] | Bliss excess [3] | Bliss excess [4] | Bliss excess (COLO-792 (Melanoma)) | Bliss excess [5] | Bliss excess (EW-7 (Ewing's Sarcoma)) | Bliss excess [6] | Bliss excess [7] | Bliss excess (HCC70 (Breast Carcinoma)) | Bliss excess (IM-9 (Non-Cancerous)) | Bliss excess [8] | Bliss excess (KP-N-YN (Neuroblastoma)) | Bliss excess [9] | Bliss excess [10] | Bliss excess [11] | Bliss excess (RH-41 (Rhabdomyosarcoma)) | Bliss excess [12] |
| --- | --- | --- | --- | --- | --- | --- | --- | --- | --- | --- | --- | --- | --- | --- | --- | --- | --- | --- | --- | --- |
| C[C@@H]1COCCN1c1cc(C2([S@](C)(=N)=O)CC2)nc(-c2ccnc3[nH]ccc23)n1 [AZD6738] + O=C(c1cc(Cc2n[nH]c(=O)c3ccccc23)ccc1F)N1CCN(C(=O)C2CC2)CC1 [Olaparib] (first compound max 10 µM, 7x7, partner max 10 µM) | -0.0011 | -0.0004 | 0.0371 | 0.0138 | 0.12 | 0.0176 | 0.0322 | -0.0081 | -0.0896 | 0.0068 | -0.003 | 0.0085 | -0.0255 | -0.0489 | -0.203 | -0.0714 | 0.0418 | -0.0008 | -0.0201 | 0.0248 |
| CC1(C)CCC(CN2CCN(c3ccc(C(=O)NS(=O)(=O)c4ccc(NCC5CCOCC5)c([N+](=O)[O-])c4)c(Oc4cnc5[nH]ccc5c4)c3)CC2)=C(c2ccc(Cl)cc2)C1 [Venetoclax] + C1CN(CCC1(C(=O)N[C@@H](CCO)C2=CC=C(C=C2)Cl)N)C3=NC=NC4=C3C=CN4 [Capivasertib] (first compound max 1 µM, 7x7, partner max 3 µM) | -0.0513 | -0.0652 | -0.0084 | -0.0473 | -0.0432 | -0.0532 | -0.0203 | -0.0751 | -0.0149 | -0.12 | -0.0377 | -0.0437 | 0.0533 | -0.0729 | -0.0573 | -0.0268 | -0.0184 | -0.0553 | 0.0441 | -0.0525 |
| Cc1c2c(nn1C)CSCc1cc(n(C)n1)CSc1cc(c3ccccc3c1)OCCCc1c(C(=O)O)n(C)c3c-2c(Cl)ccc13 [AZD5991] + CN(C)CCCOc1ccc(-c2ccc3ncc4c(c3c2)n(C2CCOCC2)c(=O)n4C)cn1 [AZD0156] (first compound max 1 µM, 7x7, partner max 1 µM) | -0.0014 | -0.0801 | 0.0058 | -0.0705 | -0.0227 | -0.0151 | 0.0191 | 0.008 | 0.0313 | 0.0162 | -0.0089 | -0.0028 | -0.0637 | -0.0079 | -0.0752 | 0.0147 | 0.0042 | 0.005 | 0.0044 | 0.0098 |
| CCN(CCO)CCCOc1ccc2c(Nc3cc(CC(=O)Nc4cccc(F)c4)[nH]n3)ncnc2c1 [AZD2811] + C[C@@H]1COCCN1C2=NC(=NC(=C2)C3(CC3)[S@](=N)(=O)C)C4=C5C=CNC5=NC=C4 [AZD6738] (first compound max 1 µM, 7x7, partner max 10 µM) | -0.0712 | -0.0414 | -0.0471 | -0.0698 | -0.0452 | -0.0461 | 0.0336 | -0.0427 | -0.0469 | -0.0703 | -0.0369 | -0.131 | -0.0441 | -0.0357 | -0.0751 | -0.0637 | -0.0555 | -0.0712 | -0.0477 | -0.0397 |
| CCN(CCO)CCCOc1ccc2c(Nc3cc(CC(=O)Nc4cccc(F)c4)[nH]n3)ncnc2c1 [AZD2811] + C=CCn1c(=O)c2cnc(Nc3ccc(N4CCN(C)CC4)cc3)nc2n1-c1cccc(C(C)(C)O)n1 [AZD1775] (first compound max 1 µM, partner max 1 µM) | -0.0232 | -0.0166 | 0.0566 | 0.0165 | 0.0013 | -0.0014 | 0.043 | -0.0247 | 0.0623 | -0.0106 | -0.0478 | -0.0112 | -0.0297 | -0.0217 | -0.027 | -0.0603 | -0.0268 | -0.0831 | 0.0118 | 0.0336 |
| CC1(C)CCC(CN2CCN(c3ccc(C(=O)NS(=O)(=O)c4ccc(NCC5CCOCC5)c([N+](=O)[O-])c4)c(Oc4cnc5[nH]ccc5c4)c3)CC2)=C(c2ccc(Cl)cc2)C1 [Venetoclax] + Cn1cnc2c(F)c(Nc3ccc(Br)cc3Cl)c(C(=O)NOCCO)cc21 [Selumetinib] (first compound max 1 µM, 7x7, partner max 3 µM) | -0.0194 | -0.0254 | -0.028 | -0.068 | -0.0087 | -0.0482 | 0.0083 | -0.0133 | -0.0058 | -0.0298 | -0.026 | 0.0707 | 0.111 | -0.0181 | -0.0102 | -0.0588 | -0.0367 | -0.0207 | 0.0237 | -0.0378 |
